Source: patent US6203976A, “Methods of preparing compositions comprising chemicals capable of transcriptional modulation” (OSI Pharmaceuticals, Inc., priority 1994, dated 2001)
Read-outs that look alike come from different tables or passages of the source. Starred links: 1 amine or outer side, 2 acyl side, 3 side chain; linkers in the order of their positions; H or OH if unused. Positions of bridges follow the written chain, without caps; N, C: chain ends. Non-standard residues stand in square brackets, D forms with d. Residues, ends and D or L forms follow the SMILES beside them. Chains are numbered I, II in the order given. Actinocin(9to1) = Cc1c2oc3c(C)ccc(C(=O)[*:1])c3nc-2c(C(=O)[*:2])c(N)c1=O; NMeV = CN[C@H](C(=O)O)C(C)C; Sar = CNCC(=O)O

Tests used:
CMV reporter (CM1 cells) = assay: Luciferase signal half-life after Actinomycin D, CM1 cells; type: cell-based, human; conditions: Actinomycin D 25 microg/ml
From the text: Hep3B hepatocellular carcinoma cells were transfected by electroporation with 75 micrograms of pCM106 which had been linearized by a single ScaI cut within the vector backbone. Neomycin resistant colonies were isolated and tested for luciferase activity. Luciferase positive, neomycin resistant clones were subjected to Southern blot analysis (see below). The best clone, producing the most luciferase activity from a single, correctly integrated vector was selected for use as the CMV reporter cell line in the high throughput screen (this clone was designated CM1).
(§1) When screening for inhibitors rather than inducers of transcription, the half-life of the reporter molecule becomes a crucial parameter in determining the minimal incubation time that would be necessary to allow enough decay of reporter molecules so that the inhibition of their synthesis became visible. […] This experiment measured the combined half-life of luciferase mRNA and of the luciferase protein and compares the rate of signal decay of the CMV reporter to three other well characterized genes; H-ras, K-ras and c-erbB2.
(§2) Cells derived from clones CM1 (CMV), K2 (K-ras), H21 (H-ras) and N2 (c-erbB2) were seeded into 96-well microtiter plates and incubated overnight. […] At the times indicated in FIG. 22, cells were washed with PBS and luciferase activity of Actinomycin-treated cells determined as described in Materials and Methods. […]

[1] = system: K-ras reporter (K2 cells); assay: Luciferase signal half-life after Actinomycin D, K2 cells; type: cell-based, human; conditions: Actinomycin D 25 microg/ml
From the text: (§3) 75 micrograms of the pKRAS106 plasmid was linearized by a single restriction endonuclease cleavage within the vector backbone and electroporated into SW480 human colon carcinoma cells. Neomycin resistant clones were isolated and tested for luciferase activity. Clones testing positive for luciferase production were subjected to Southern blot analysis (see below). The best clone (producing the highest signal and carrying a single intact copy of the transfected DNA) was utilized for high throughput screening (designated clone K2).
as §1, §2

[2] = system: H-ras reporter (H21 cells); assay: Luciferase signal half-life after Actinomycin D, H21 cells; type: cell-based; conditions: Actinomycin D 25 microg/ml
Description: When screening for inhibitors rather than inducers of transcription, the half-life of the reporter molecule becomes a crucial parameter in determining the minimal incubation time that would be necessary to allow enough decay of reporter molecules so that the inhibition of their synthesis became visible. The CMV reporter cell line was therefore tested for the time dependency of luciferase activity after treatment of the cells with Actinomycin D, an inhibitor of transcription. This experiment measured the combined half-life of luciferase mRNA and of the luciferase protein and compares the rate of signal decay of the CMV reporter to three other well characterized genes; H-ras, K-ras and c-erbB2.
Cells derived from clones CM1 (CMV), K2 (K-ras), H21 (H-ras) and N2 (c-erbB2) were seeded into 96-well microtiter plates and incubated overnight. At time 0, Actinomycin D (25 microg/ml) was added. At the times indicated in FIG. 22, cells were washed with PBS and luciferase activity of Actinomycin-treated cells determined as described in Materials and Methods. The signal from the treated cells was compared to the luciferase activity of untreated controls.

[3] = system: neu (c-erbB2) reporter (N2 cells); assay: Luciferase signal half-life after Actinomycin D, N2 cells; type: cell-based, human; conditions: Actinomycin D 25 microg/ml
From the text: as §3, with “pNEU106” for “pKRAS106”, “HTB30” for “SW480”, “breast” for “colon”, “N2).” for “K2).”
as §1, §2

[4] = system: human growth hormone (532) promoter; assay: High-throughput luciferase reporter assay, human Growth Hormone promoter (Screen III); type: cell-based; conditions: 532 cells, 6 hours; for FOLD INHIBITION RELATIVE TO SOLVENT CONTROL, hGH: Screen III inhibitors; for FOLD INDUCTION RELATIVE TO SOLVENT CONTROL, hGH: Screen III activators
MMTV (M10) promoter = assay: High-throughput luciferase reporter assay, MMTV promoter (Screen III); type: cell-based, mouse; conditions: M10 cells, 6 hours; for FOLD INHIBITION RELATIVE TO SOLVENT CONTROL, MMTV: Screen III inhibitors; for FOLD INDUCTION RELATIVE TO SOLVENT CONTROL, MMTV: Screen III activators
[5] = system: human G-CSF (G21) promoter; conditions: Screen III inhibitors; G21 cells; 6 hours
[6] = system: human G-CSF (G21) promoter; assay: High-throughput luciferase reporter assay, G-CSF promoter (Screen III); conditions: G21 cells, 6 hours; for FOLD INDUCTION RELATIVE TO SOLVENT CONTROL, GCSF: Screen III activators; for FOLD INHIBITION RELATIVE TO SOLVENT CONTROL, GCSF: Screen III inhibitors

SMILES | FOLD INHIBITION RELATIVE TO SOLVENT CONTROL, hGH [4] [fold] | FOLD INHIBITION RELATIVE TO SOLVENT CONTROL, MMTV (MMTV (M10) promoter) [fold] | FOLD INDUCTION RELATIVE TO SOLVENT CONTROL, hGH [4] [fold] | FOLD INDUCTION RELATIVE TO SOLVENT CONTROL, MMTV (MMTV (M10) promoter) [fold] | FOLD INDUCTION RELATIVE TO SOLVENT CONTROL, GCSF [6] [fold] | further results
Cc1c2oc3c(C)ccc(C(=O)N[C@@H]4C(=O)N[C@H](C(C)C)C(=O)N5CCC[C@H]5C(=O)N(C)CC(=O)N(C)[C@@H](C(C)C)C(=O)O[C@@H]4C)c3nc-2c(C(=O)N[C@@H]2C(=O)N[C@H](C(C)C)C(=O)N3CCC[C@H]3C(=O)N(C)CC(=O)N(C)[C@@H](C(C)C)C(=O)O[C@@H]2C)c(N)c1=O [Actinomycin D] (I: T[dV]P[Sar][NMeV] / II: T[dV]P[Sar][NMeV]; ester I:1-I:C, II:1-II:C; linker I:N-II:N via Actinocin(9to1)) | – | – | – | – | – | Signal Halflife (CMV reporter (CM1 cells)): 6.5 h; Signal Halflife [1]: 6.5 h; Signal Halflife [2]: 10 h; Signal Halflife [3]: 3 h
O=S(=O)(O)c1ccc2c(N=Nc3ccc(S(=O)(=O)O)c4ccccc34)c(O)c(S(=O)(=O)O)cc2c1 [compound 512] | 5.26 | 0.68 | – | – | – | FOLD INHIBITION RELATIVE TO SOLVENT CONTROL, GCSF [5]: 0.81 fold
CC1(C)[C@H]2CC[C@]1(C)[C@H](O)C2 [compound 1635] | 9.09 | 0.99 | – | – | – | FOLD INHIBITION RELATIVE TO SOLVENT CONTROL, GCSF [5]: 0.71 fold
CC1(C)[C@H]2CC[C@]1(C)C(=O)C2 [compound 1720] | 4.76 | 0.66 | – | – | – | FOLD INHIBITION RELATIVE TO SOLVENT CONTROL, GCSF [5]: 0.65 fold
N=c1cc2oc3cc(N)ccc3nc-2c2ccccc12 [compound 1776] | – | – | 0.15 | 1.36 | 3.50 | –
CN(C)C(=S)SCC#N [compound 1793] | – | – | 0.52 | 1.21 | 9.50 | –
O=C(O)C1CCC1 [compound 1804] | – | – | 9.41 | 0.49 | 1.05 | –
O=c1[nH]c(=O)c2nc3ccccc3nc2[nH]1 [compound 1890] | 5.26 | 0.58 | – | – | – | FOLD INHIBITION RELATIVE TO SOLVENT CONTROL, GCSF [6]: 0.80 fold
Nc1c2ccccc2nc2ccccc12 [compound 1904] | – | – | 0.54 | 0.82 | 4.12 | –
Brc1cccc(-c2ccccc2)c1 [compound 1994] | – | – | 0.34 | 0.63 | 3.29 | –
CC(C)(C)c1ccc(Br)cc1 [compound 2001] | – | – | 0.74 | 1.12 | 3.11 | –
Cc1n[nH]c(C)c1Br [compound 2009] | 0.57 | 0.64 | – | – | – | FOLD INHIBITION RELATIVE TO SOLVENT CONTROL, GCSF [5]: 3.70 fold
Nc1c(Br)cc([N+](=O)[O-])cc1[N+](=O)[O-] [compound 2010] | 0.63 | 3.57 | – | – | – | FOLD INHIBITION RELATIVE TO SOLVENT CONTROL, GCSF [6]: 0.80 fold
COc1c(F)cc(Br)cc1[N+](=O)[O-] [compound 2030] | – | – | 0.67 | 0.87 | 5.53 | –
O=C(O)c1ccc(Br)o1 [compound 2035] | 7.14 | 0.89 | – | – | – | FOLD INHIBITION RELATIVE TO SOLVENT CONTROL, GCSF [6]: 0.57 fold
Nc1nc2c(nc(Br)n2[C@@H]2O[C@H](CO)[C@@H](O)[C@H]2O)c(=O)[nH]1 [compound 2036] | 4.34 | 0.81 | – | – | – | FOLD INHIBITION RELATIVE TO SOLVENT CONTROL, GCSF [5]: 0.58 fold
CCCCCCCCCCCCCCCCBr [compound 2037] | 4.00 | 0.50 | – | – | – | FOLD INHIBITION RELATIVE TO SOLVENT CONTROL, GCSF [5]: 0.51 fold
COc1cc2oc(=O)cc(CBr)c2cc1OC [compound 2064] | – | – | 1.10 | 2.53 | 0.82 | –
CC(CCl)CBr (stereo not shown) [compound 2096] | – | – | 0.61 | 0.89 | 3.27 | –
ClCc1ccc(Cl)cc1 [compound 2129] | – | – | 0.75 | 0.95 | 3.23 | –
O=C1CCCCC1Cl (stereo not shown) [compound 2148] | – | – | 0.92 | 2.82 | 0.45 | –
O=C(N[C@H](CO)[C@H](O)c1ccc([N+](=O)[O-])cc1)C(Cl)Cl [compound 2191] | – | – | 0.35 | 7.32 | 0.37 | –
